The nature of series [1]: Potentiometric titration profile. The format is physicochemical. Conditions: methylcellosolve/water 4:1, titration with 0.01N NaOH after excess of 0.01N HCl.
A further series in a line: Solubility. The series is classed as physicochemical.
Series [2] has as its system Streptococcus pneumoniae UC 41. Kind of series: In vitro antibacterial activity, two-fold dilution method in microtiter system (MIC). The series is classed as cell-based. Here is the method: (§1) The in vitro antibacterial activity of deglucoteicoplanin was determined using the two-fold dilution method in microtiter system. Todd-Hewitt broth (Difco) was used for streptococci and Isosensitest broth (Oxoid) for staphylococci and gram-negative bacteria. Overnight broth cultures were diluted so that the final inoculum was about 10^4 colony-forming units per ml (cfu/ml).

Series [3] concerns Escherichia coli SKF 12140. Described as above. The format is cell-based. On the procedure:
as §1

Series [4] deals with Staphylococcus aureus ATCC 6538. The description is as above. The format is cell-based. Conditions: inoculum about 10^4 cfu/ml, 18-24 hours at 37° C. On the procedure:
as §1

The subject of series [5] is Pseudomonas aeruginosa ATCC 10145. The description is as above. The series is classed as cell-based. Here is the method: as §1
Series [6] has as its system Streptococcus pyogenes C 203 SFK 13400. The series is described as above. The format is cell-based. On the procedure:
as §1

For series [7], the system named is Streptococcus faecalis ATCC 7080. The description is as above. The format is cell-based. On the procedure: as §1
The subject of series [8] is Proteus vulgaris X 19 H ATCC 881. The series is described as above. The series is classed as cell-based. Here is the method:
as §1

The test system of series [9] is Staphylococcus epidermidis ATCC 12228. The description is as above. The format is cell-based. Here is the method: as §1
For another series, the system named is S. epidermidis 1372. Kind of series: MIC against clinical isolate methicillin-resistant staphylococci. The format is cell-based. More on the design: unit not given here. Conditions: S. epidermidis 1372, clinical isolate methicillin-resistant. Here is the method: as §1
For another series, the system named is S. epidermidis 1142. The description is as above. The format is cell-based. Conditions: S. epidermidis 1142, clinical isolate methicillin-resistant. Details: unit not given here. On the procedure: as §1
The test system of the next series is S. epidermidis 835. The description is as above. Conditions: S. epidermidis 835, clinical isolate methicillin-resistant. The series is classed as cell-based. Details: unit not given here. Here is the method:
as §1

The next series concerns S. aureus L 1096. The description is as above. The format is cell-based. The note with it: S. aureus L 1096, clinical isolate methicillin-resistant. More on the design: unit not given here. On the procedure:
as §1

The next series deals with S. aureus L 1526. Described as above. The series is classed as cell-based. More on the design: unit not given here. The note with it: S. aureus L 1526, clinical isolate methicillin-resistant. Here is the method: as §1
The next series concerns S. aureus L 1097. The series is described as above. The format is cell-based. Details: unit not given here. The note with it: S. aureus L 1097, clinical isolate methicillin-resistant. On the procedure:
as §1

In a further series the test system is S. epidermidis 785. The description is as above. The series is classed as cell-based. More on the design: unit not given here. Conditions: S. epidermidis 785, clinical isolate methicillin-resistant. Here is the method:
as §1

Another series has as its system S. aureus L 1524. Described as above. The format is cell-based. More on the design: unit not given here. The note with it: S. aureus L 1524, clinical isolate methicillin-resistant. On the procedure: as §1
For another series, the system named is S. epidermidis 1378. Described as above. The format is cell-based. More on the design: unit not given here. Conditions: S. epidermidis 1378, clinical isolate methicillin-resistant. Here is the method:
as §1

In series [10] the test system is clinical isolate methicillin-resistant staphylococci (S. aureus, S. epidermidis). Kind of series: In vitro antibacterial activity against methicillin-resistant staphylococci (summary). The series is classed as cell-based. Conditions: in words. On the procedure:
as §1

Series [11] concerns Staphylococcus aureus Tour. Kind of series: In vitro antibacterial activity, two-fold dilution method in microtiter system (MIC). The format is cell-based. On the procedure: The in vitro antibacterial activity of deglucoteicoplanin was determined using the two-fold dilution method in microtiter system. Todd-Hewitt broth (Difco) was used for streptococci and Isosensitest broth (Oxoid) for staphylococci and gram-negative bacteria. […]

The next series deals with S. pyogenes. Kind of series: Experimental infection in mice infected with S. pyogenes. The series is classed as in vivo. Conditions: subcutaneous administration.
Series [12] has as its system staphylococci (S. aureus, S. epidermidis). Put plainly: In vitro antibacterial activity against staphylococci (summary). The series is classed as cell-based. The note with it: in words. On the procedure: as §1

In brackets after ≈: the same amount, converted by molar mass. A value given as a limit tells only on which side of the number the result lay.

For the compound `CC(=O)N[C@@H]1[C@@H](O[C@H]2c3ccc(c(Cl)c3)Oc3cc4cc(c3O)Oc3ccc(cc3Cl)C[C@@H]3NC(=O)[C@@H](N)c5ccc(O)c(c5)Oc5cc(O)cc(c5)[C@@H](NC3=O)C(=O)N[C@@H]4C(=O)N[C@@H]3C(=O)N[C@H]2C(=O)N[C@@H](C(=O)O)c2cc(O)cc(O)c2-c2cc3ccc2O)O[C@@H](CO)[C@H](O)[C@H]1O` (stereo in doubt) [antibiotic L 17046], the “pH1/2 value, third titration slope” value in series [1] (five equivalents) is 11. Besides, the “pH1/2 value, first titration slope” value in [1] (one equivalent) is reported as 5.0. Further, in series [1] (one equivalent), the “pH1/2 value, second titration slope” value is reported as 7.0. Besides, the solubility entry in the series “Solubility” (in methanol) is recorded as “slightly soluble”; in “Solubility” (in n-hexane, ethyl ether and acetone) it was “almost insoluble”; in the series “Solubility” (in water at pH>8.0, in dimethylformamide, dimethylsulfoxide, propyleneglycol and methylcellosolve), “freely soluble”.
As for `N[C@H]1C(=O)N[C@@H]2Cc3ccc(c(Cl)c3)Oc3cc4cc(c3O)Oc3ccc(cc3Cl)[C@@H](O)[C@@H]3NC(=O)[C@H](NC(=O)[C@@H]4NC(=O)[C@@H](NC2=O)c2cc(O)cc(c2)Oc2cc1ccc2O)c1ccc(O)c(c1)-c1c(O)cc(O)cc1[C@@H](C(=O)O)NC3=O` [deglucoteicoplanin], the MIC in series [2] is 0.05 µg/mL (≈ 0.0417 µM); in series [3] it was 25 µg/mL (≈ 20.9 µM); in [4], 0.025 µg/mL (≈ 0.0209 µM); in series [5], more than 100 µg/mL; in [6] it was 0.05 µg/mL (≈ 0.0417 µM); in [7], 0.1 µg/mL (≈ 0.0834 µM). For the same compound, the MIC in [8] was found to be 50 µg/mL (≈ 41.7 µM); in series [9] it was 0.0125 µg/mL (≈ 0.0104 µM); with S. epidermidis 1372 it was 0.2; against S. epidermidis 1142, 0.05; with S. epidermidis 835 it was 0.05; against S. aureus L 1096, 0.05. The MIC against S. aureus L 1526 was 0.05; in the series with S. aureus L 1097 it was 0.05; in the series on S. epidermidis 785, 0.05; against S. aureus L 1524, 0.1; against S. epidermidis 1378, 0.05; in [11] (Inoculum: 10^6 cfu/ml) it was 0.2 µg/mL (≈ 0.167 µM). Besides, the MIC in [11] (in the presence of 30% bovine serum) came to 0.2 µg/mL; in series [11] (inoculum about 10^4 cfu/ml), 0.05 µg/mL (≈ 0.0417 µM). Besides, the “activity against clinical isolate methicillin-resistant staphylococci” value in series [10] is “very effective”. Also, in the series on S. pyogenes, the 50% effective dose (ED50) is reported as 0.95 mg/kg. The solubility result in “Solubility” (in ethyl alcohol and dimethylformamide) is “slightly soluble”; in the series “Solubility” (in water at a pH higher than 9 and aqueous methanol, ethanol and acetone), “soluble”. Moreover, the “activity against staphylococci (S. aureus, S. epidermidis)” value in [12] was “very active”.
